Test results as given in patent publication US6737383B1, “Herbicidal oxadiazolidines” (priority 1999, dated 2004).

What was measured:
surinam grass = test: Test B pre/postemergence surinam grass; format: in vivo, Brachiaria decumbens
Method in brief: (§1)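 Herbicidal effect was estimated by eye on a ten-point control scale after plants spent twelve to sixteen days in a greenhouse following soil or foliar treatment. Foliar sprays targeted plants at one to four leaves; all doses were formulated in a non-phytotoxic solvent with surfactant.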

morningglory = test: Test B pre/postemergence morningglory; format: in vivo, Ipomoea hederacea
Method in brief: as §1

cocklebur = test: Test B pre/postemergence cocklebur; format: in vivo, Xanthium strumarium
Method in brief: as §1

rice = test: Test B flood test rice; format: in vivo, Oryza sativa
Method in brief: (§2)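 Read-out is a visual response score from 0 (no effect) to 10 (complete control), assigned by comparison with untreated controls. Treatment was applied at the 2-leaf stage, and plants stayed in the greenhouse for twelve to sixteen days before scoring.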

purple nutsedge = test: Test B pre/postemergence purple nutsedge; format: in vivo, Cyperus rotundus
Method in brief: as §1

pigweed = test: Test B pre/postemergence pigweed; format: in vivo, Amaranthus retroflexus
Method in brief: as §1

sugar beet = test: Test B pre/postemergence sugar beet; format: in vivo, Beta vulgaris
Method in brief: as §1

soybean = test: Test B pre/postemergence soybean; format: in vivo, Glycine max
Method in brief: as §1

crabgrass = test: Test B pre/postemergence crabgrass; format: in vivo, Digitaria sanguinalis
Method in brief: as §1

corn = test: Test B pre/postemergence corn; format: in vivo, Zea mays
Method in brief: as §1

wild oat = test: Test B pre/postemergence wild oat; format: in vivo, Avena fatua
Method in brief: as §1

smallflower flatsedge = test: Test B flood test smallflower flatsedge; format: in vivo, Cyperus difformis
Method in brief: as §2

giant foxtail = test: Test B pre/postemergence giant foxtail; format: in vivo, Setaria faberii
Method in brief: as §1

bedstraw = test: Test B pre/postemergence bedstraw; format: in vivo, Galium aparine; settings: Preemergence; for Bedstraw plant response rating: scale of 0 to 10 where 0 is no effect and 10 is complete control; for Plant response rating, Bedstraw: scale 0 to 10 (0 no effect, 10 complete control)
Method in brief: as §1

duck salad = test: Test B flood test duck salad; format: in vivo, Heteranthera limosa
Method in brief: as §2

blackgrass = test: Test B pre/postemergence blackgrass; format: in vivo, Alopecurus myosuroides
Method in brief: as §1

[1] = Postemergence, Rate 125 g/ha, scale of 0 to 10 where 0 is no effect and 10 is complete control
[2] = Postemergence, Rate 250 g/ha, scale of 0 to 10, 0 is no effect, 10 is complete control
[3] = Postemergence, Rate 500 g/ha, scale of 0 to 10 where 0 is no effect and 10 is complete control
[4] = Postemergence, Rate 1000 g/ha, scale 0 to 10 (0 no effect, 10 complete control)
[5] = Preemergence, Rate 125 g/ha, scale of 0 to 10 where 0 is no effect and 10 is complete control
[6] = Preemergence, Rate 250 g/ha, scale 0 to 10 (0 no effect, 10 complete control)
[7] = Preemergence, Rate 500 g/ha, scale of 0 to 10 where 0 is no effect and 10 is complete control
[8] = Rate 1000 g/ha, Preemergence, scale 0 to 10 (0 no effect, 10 complete control)
[9] = Pre-emergence, Rate 1000 g/ha, scale 0 to 10 (0 no effect, 10 complete control)
[10] = Rate 125 g/ha, under heading Pre-emergence, flood test species, visual evaluation after twelve to sixteen days
[11] = Rate 250 g/ha, Pre-emergence (flood test species), scale 0 to 10, 0 is no effect, 10 is complete control
[12] = Rate 500 g/ha, Pre-emergence section of Table B, 0 to 10 scale (0 no effect, 10 complete control)

CCOP(=O)(OCC)C(C)n1c(=O)on(C(=O)N(c2ccc(F)cc2)C(C)C)c1=O (stereo not shown) [Compound 617]
0: Plant response rating, B. signalgrass (surinam grass; [1]) | B. signalgrass plant response rating (surinam grass; [2]) | Plant response rating, B. signalgrass (surinam grass; [3]) | B. signalgrass plant response rating (surinam grass; [5]) | Plant response rating, Morningglory (morningglory; [1]) | Morningglory plant response rating (morningglory; [2]) | Morningglory plant response rating (morningglory; [5]) | Plant response rating, Morningglory (morningglory; [6]) | Plant response rating, Morningglory (morningglory; [7]) | Plant response rating, Morningglory (morningglory; [8]) | Plant response rating, Cocklebur (cocklebur; [1]) | Cocklebur plant response rating (cocklebur; [2]) | Cocklebur plant response rating (cocklebur; [5]) | Plant response rating, Cocklebur (cocklebur; [6]) | Plant response rating, Cocklebur (cocklebur; [7]) | Plant response rating, Cocklebur (cocklebur; [8]) | Rice plant response rating (rice; [9]) | Rice plant response rating (0 to 10 scale, 0 is no effect, 10 is complete control) (rice; [10]) | Rice plant response rating (rice; [11]) | Rice plant response rating (rice; [12]) | Plant response rating, Nutsedge (purple nutsedge; [1]) | Plant response rating, Nutsedge (purple nutsedge; [3]) | Nutsedge plant response rating (purple nutsedge; [4]) | Nutsedge plant response rating (purple nutsedge; [5]) | Plant response rating, Nutsedge (purple nutsedge; [6]) | Plant response rating, Redroot pigweed (pigweed; [1]) | Redroot pigweed plant response rating (pigweed; [2]) | Redroot pigweed plant response rating (pigweed; [4]) | Redroot pigweed plant response rating (pigweed; [5]) | Plant response rating, Redroot pigweed (pigweed; [6]) | Plant response rating, Redroot pigweed (pigweed; [7]) | Plant response rating, Redroot pigweed (pigweed; [8]) | Plant response rating, Sugarbeets (sugar beet; [1]) | Sugarbeets plant response rating (sugar beet; [2]) | Sugarbeets plant response rating (sugar beet; [4]) | Sugarbeets plant response rating (sugar beet; [5]) | Plant response rating, Sugarbeets (sugar beet; [6]) | Plant response rating, Sugarbeets (sugar beet; [7]) | Plant response rating, Sugarbeets (sugar beet; [8]) | Soybean plant response rating (soybean; [5]) | Plant response rating, Soybean (soybean; [6]) | Plant response rating, Soybean (soybean; [7]) | Plant response rating, Crabgrass (crabgrass; [1]) | Plant response rating, Crabgrass (crabgrass; [3]) | Plant response rating, Corn (corn; [1]) | Corn plant response rating (corn; [2]) | Plant response rating, Corn (corn; [3]) | Corn plant response rating (corn; [4]) | Corn plant response rating (corn; [5]) | Plant response rating, Corn (corn; [6]) | Plant response rating, Corn (corn; [7]) | Plant response rating, Corn (corn; [8]) | Plant response rating, Wild oats (wild oat; [1]) | Wild oats plant response rating (wild oat; [2]) | Wild oats plant response rating (wild oat; [4]) | Wild oats plant response rating (wild oat; [5]) | S. Flatsedge plant response rating (smallflower flatsedge; [9]) | S. Flatsedge plant response rating (0 to 10 scale, 0 is no effect, 10 is complete control) (smallflower flatsedge; [10]) | S. Flatsedge plant response rating (smallflower flatsedge; [11]) | S. Flatsedge plant response rating (smallflower flatsedge; [12]) | Plant response rating, Giant foxtail (giant foxtail; [1]) | Plant response rating, Giant foxtail (giant foxtail; [3]) | Bedstraw plant response rating (bedstraw; Rate 125 g/ha) | Plant response rating, Bedstraw (bedstraw; Rate 250 g/ha) | Bedstraw plant response rating (bedstraw; Rate 500 g/ha) | Plant response rating, Bedstraw (bedstraw; Rate 1000 g/ha) | Ducksalad plant response rating (duck salad; [9]) | Ducksalad plant response rating (0 to 10 scale, 0 is no effect, 10 is complete control) (duck salad; [10]) | Ducksalad plant response rating (duck salad; [11]) | Ducksalad plant response rating (duck salad; [12]) | Plant response rating, Blackgrass (blackgrass; [1]) | Blackgrass plant response rating (blackgrass; [2]) | Plant response rating, Blackgrass (blackgrass; [3]) | Blackgrass plant response rating (blackgrass; [5])
7: Soybean plant response rating (soybean; [4]) | Crabgrass plant response rating (crabgrass; [4])
6: Morningglory plant response rating (morningglory; [4]) | Giant foxtail plant response rating (giant foxtail; [4]) | Blackgrass plant response rating (blackgrass; [4]) | Plant response rating, Blackgrass (blackgrass; [6]) | Blackgrass plant response rating (blackgrass; [7])
9: Plant response rating, Wild oats (wild oat; [8]) | Giant foxtail plant response rating (giant foxtail; [5]) | Plant response rating, Giant foxtail (giant foxtail; [6]) | Plant response rating, Giant foxtail (giant foxtail; [7])
4: Plant response rating, B. signalgrass (surinam grass; [6]) | Giant foxtail plant response rating (giant foxtail; [2])
8: Plant response rating, B. signalgrass (surinam grass; [8]) | Plant response rating, Nutsedge (purple nutsedge; [8]) | Plant response rating, Crabgrass (crabgrass; [7]) | Plant response rating, Crabgrass (crabgrass; [8])
1: Plant response rating, Soybean (soybean; [1]) | Plant response rating, Soybean (soybean; [8])
3: B. signalgrass plant response rating (surinam grass; [4]) | Plant response rating, Morningglory (morningglory; [3]) | Cocklebur plant response rating (cocklebur; [4]) | Soybean plant response rating (soybean; [2]) | Plant response rating, Wild oats (wild oat; [7])
5: B. signalgrass plant response rating (surinam grass; [7]) | Plant response rating, Nutsedge (purple nutsedge; [7]) | Plant response rating, Crabgrass (crabgrass; [6])
2: Plant response rating, Cocklebur (cocklebur; [3]) | Crabgrass plant response rating (crabgrass; [2]) | Plant response rating, Wild oats (wild oat; [6])
10: Plant response rating, Giant foxtail (giant foxtail; [8]) | Plant response rating, Blackgrass (blackgrass; [8])
